Experimental data published in patent US20230085307A1, “PYRIDAZINONE COMPOUND AND HERBICIDE” (NISSAN CHEMICAL CORPORATION, priority 2019, published 2023).

Tests used:
[1] = tested on: velvetleaf; experiment: Test Example 4: herbicidal effect by soil treatment (Table 19, symbol M); assay type: in vivo, velvetleaf (Abutilon theophrasti); settings: AAH 320 g/ha
How it was run: (§1)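 Three weeks of greenhouse growth at 25° C. to 30° C. followed a uniform surface spray of water-diluted emulsion at a predetermined herbicide amount. Seeds had been sown beforehand under about 1.5 cm of sterilized diluvial soil. Grading followed criteria set out in an earlier test.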

[2] = tested on: persian speedwell; experiment: Test Example 5: herbicidal effect by foliage application, plastic box (Table 20, symbol R); assay type: in vivo, Persian speedwell (Veronica persica); settings: foliage application, AAH 320 g/ha, three weeks after application
How it was run: (§2)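 Plants sown in sterilized diluvial soil and grown 14 days in a greenhouse at 25° C to 30° C, then sprayed on the foliage with the compound's emulsion diluted in water to a predetermined herbicide amount. Injury to weeds and crops scored three weeks after application on a visual rating scale.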

[3] = tested on: blackgrass; experiment: Test Example 5: herbicidal effect by foliage application, plastic box (Table 20, symbol J); assay type: in vivo, blackgrass (Alopecurus myosuroides); settings: foliage application, AAH 320 g/ha, three weeks after application
How it was run: as §2

[4] = tested on: redroot pigweed; experiment: Test Example 4: herbicidal effect by soil treatment (Table 19, symbol N); assay type: in vivo, redroot pigweed (Amaranthus retroflexus); settings: AAH 320 g/ha
How it was run: as §1

[5] = tested on: chickweed; experiment: Test Example 4: herbicidal effect by soil treatment (Table 19, symbol P); assay type: in vivo, common chickweed (Stellaria media); settings: AAH 320 g/ha
How it was run: as §1

[6] = tested on: Italian ryegrass; experiment: Test Example 5: herbicidal effect by foliage application, plastic box (Table 20, symbol K); assay type: in vivo, Italian ryegrass (Lolium multiflorum); settings: foliage application, AAH 320 g/ha, three weeks after application
How it was run: as §2

[7] = tested on: windgrass; experiment: Test Example 5: herbicidal effect by foliage application, plastic box (Table 20, symbol L); assay type: in vivo, windgrass (Apera spica-venti); settings: foliage application, AAH 320 g/ha, three weeks after application
How it was run: as §2

[8] = tested on: lambsquarters; experiment: Test Example 4: herbicidal effect by soil treatment (Table 19, symbol O); assay type: in vivo, lambsquarters (Chenopodium album); settings: AAH 320 g/ha
How it was run: as §1

[9] = tested on: barnyard grass; experiment: Test Example 5: herbicidal effect by foliage application, plastic box (Table 20, symbol H); assay type: in vivo, barnyard grass (Echinochloa crus-galli); settings: foliage application, AAH 320 g/ha, three weeks after application
How it was run: as §2

[10] = tested on: barnyard grass; experiment: Test Example 4: herbicidal effect by soil treatment (Table 19, symbol H); assay type: in vivo, barnyard grass (Echinochloa crus-galli); settings: AAH 320 g/ha
How it was run: as §1

[11] = tested on: Japanese bulrush; experiment: Test Example 2: herbicidal activity, application during weed generation under submerged conditions (Table 17, symbol B); assay type: in vivo, Japanese bulrush (Schoenoplectus juncoides); settings: AAH 320 g/ha; application during weed generation, submerged conditions
How it was run: (§3)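 Steps: fill Wagner pots with alluvial soil; add water to give 4 cm depth; sow the species mixed; grow under glass at 25–30° C.; at 1–2 leaves apply water-diluted emulsion formulation to the water surface at a fixed herbicide amount; score after 3 weeks.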

[12] = tested on: rice flat sedge; experiment: Test Example 3: herbicidal effect by foliage application, Wagner pot (Table 18, symbol E); assay type: in vivo, rice flat sedge (Cyperus iria); settings: 320 g/ha
How it was run: (§4)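 Plants were sown in alluvial soil held under 0.1–0.5 cm standing water and grown 14 days in a greenhouse at 25–30 °C. An emulsifiable formulation, water-diluted to the set dose, was then sprayed onto the foliage, and effects were scored three weeks later using previously defined criteria.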

[13] = tested on: wild oat; experiment: Test Example 4: herbicidal effect by soil treatment (Table 19, symbol I); assay type: in vivo, wild oat (Avena fatua); settings: AAH 320 g/ha
How it was run: as §1

[14] = tested on: green foxtail; experiment: Test Example 4: herbicidal effect by soil treatment (Table 19, symbol G); assay type: in vivo, green foxtail (Setaria viridis); settings: AAH 320 g/ha
How it was run: as §1

[15] = tested on: barnyard grass; experiment: Test Example 3: herbicidal effect by foliage application, Wagner pot (Table 18, symbol H); assay type: in vivo, barnyard grass (Echinochloa crus-galli); settings: 320 g/ha
How it was run: as §4

[16] = tested on: late watergrass; experiment: Test Example 2: herbicidal activity, application during weed generation under submerged conditions (Table 17, symbol A); assay type: in vivo, late watergrass (Echinochloa oryzicola); settings: AAH 320 g/ha; application during weed generation, submerged conditions
How it was run: as §3

[17] = tested on: southern crabgrass; experiment: Test Example 4: herbicidal effect by soil treatment (Table 19, symbol F); assay type: in vivo, southern crabgrass (Digitaria ciliaris); settings: AAH 320 g/ha
How it was run: as §1

[18] = tested on: wild oat; experiment: Test Example 5: herbicidal effect by foliage application, plastic box (Table 20, symbol I); assay type: in vivo, wild oat (Avena fatua); settings: foliage application, AAH 320 g/ha, three weeks after application
How it was run: as §2

[19] = tested on: redroot pigweed; experiment: Test Example 5: herbicidal effect by foliage application, plastic box (Table 20, symbol N); assay type: in vivo, redroot pigweed (Amaranthus retroflexus); settings: foliage application, AAH 320 g/ha, three weeks after application
How it was run: as §2

[20] = tested on: lambsquarters; experiment: Test Example 5: herbicidal effect by foliage application, plastic box (Table 20, symbol O); assay type: in vivo, lambsquarters (Chenopodium album); settings: foliage application, AAH 320 g/ha, three weeks after application
How it was run: as §2

[21] = tested on: Italian ryegrass; experiment: Test Example 4: herbicidal effect by soil treatment (Table 19, symbol K); assay type: in vivo, Italian ryegrass (Lolium multiflorum); settings: AAH 320 g/ha
How it was run: as §1

[22] = tested on: southern crabgrass; experiment: Test Example 5: herbicidal effect by foliage application, plastic box (Table 20, symbol F); assay type: in vivo, southern crabgrass (Digitaria ciliaris); settings: foliage application, AAH 320 g/ha, three weeks after application
How it was run: as §2

Row | Structure (SMILES) | M: velvetleaf, herbicidal effect rating [1] | R: persian speedwell, herbicidal effect [2] | J: blackgrass, herbicidal effect [3] | N: redroot pigweed, herbicidal effect rating [4] | P: chickweed, herbicidal effect rating [5] | K: Italian ryegrass, herbicidal effect [6] | L: windgrass, herbicidal effect [7] | O: lambsquarters, herbicidal effect rating [8] | H: barnyard grass, herbicidal effect [9] | H: barnyard grass, herbicidal effect rating [10] | herbicidal effect rating, B: Japanese bulrush [11] | herbicidal effect on E (rice flat sedge), rating 0-5 [12] | I: wild oat, herbicidal effect rating [13] | G: green foxtail, herbicidal effect rating [14] | herbicidal effect on H (barnyard grass), rating 0-5 [15] | herbicidal effect rating, A: late watergrass [16] | F: southern crabgrass, herbicidal effect rating [17] | I: wild oat, herbicidal effect [18] | N: redroot pigweed, herbicidal effect [19] | O: lambsquarters, herbicidal effect [20] | other results
1 | CCCC(=O)Oc1c(C)nn(C)c(=O)c1-c1c(-c2ccc(C(C)C)cc2)sc2ccccc12 [1-126] | 0 (Herbicidal rate of 5% or less (almost no effect)) | 4 (Herbicidal rate of 70% or more and less than 90%) | 0 (Herbicidal rate of 5% or less (almost no effect)) | 3 (Herbicidal rate of 40% or more and less than 70%) | 2 (Herbicidal rate of 20% or more and less than 40%) | 4 (Herbicidal rate of 70% or more and less than 90%) | 0 (Herbicidal rate of 5% or less (almost no effect)) | 2 (Herbicidal rate of 20% or more and less than 40%) | 4 (Herbicidal rate of 70% or more and less than 90%) | 0 (Herbicidal rate of 5% or less (almost no effect)) | 3 (Herbicidal rate of 40% or more and less than 70%) | 4 (Herbicidal rate of 70% or more and less than 90%) | 0 (Herbicidal rate of 5% or less (almost no effect)) | 0 (Herbicidal rate of 5% or less (almost no effect)) | 5 (Herbicidal rate of 90% or more (almost completely withered)) | 2 (Herbicidal rate of 20% or more and less than 40%) | 0 (Herbicidal rate of 5% or less (almost no effect)) | 2 (Herbicidal rate of 20% or more and less than 40%) | 5 (Herbicidal rate of 90% or more (almost completely withered)) | 4 (Herbicidal rate of 70% or more and less than 90%) | K: Italian ryegrass, herbicidal effect rating [21]: 3 (Herbicidal rate of 40% or more and less than 70%); F: southern crabgrass, herbicidal effect [22]: 1 (Herbicidal rate of 5% or more and less than 20%)
2 | COCc1ccc(-c2sc3ccccc3c2-c2c(O)c(C)nn(C)c2=O)cc1 [1-131] | 5 (Herbicidal rate of 90% or more (almost completely withered)) | 5 (Herbicidal rate of 90% or more (almost completely withered)) | 4 (Herbicidal rate of 70% or more and less than 90%) | 5 (Herbicidal rate of 90% or more (almost completely withered)) | 5 (Herbicidal rate of 90% or more (almost completely withered)) | 5 (Herbicidal rate of 90% or more (almost completely withered)) | 4 (Herbicidal rate of 70% or more and less than 90%) | 5 (Herbicidal rate of 90% or more (almost completely withered)) | 5 (Herbicidal rate of 90% or more (almost completely withered)) | 5 (Herbicidal rate of 90% or more (almost completely withered)) | 1 (Herbicidal rate of 5% or more and less than 20%) | 5 (Herbicidal rate of 90% or more (almost completely withered)) | 2 (Herbicidal rate of 20% or more and less than 40%) | 5 (Herbicidal rate of 90% or more (almost completely withered)) | 5 (Herbicidal rate of 90% or more (almost completely withered)) | 0 (Herbicidal rate of 5% or less (almost no effect)) | 4 (Herbicidal rate of 70% or more and less than 90%) | 4 (Herbicidal rate of 70% or more and less than 90%) | 5 (Herbicidal rate of 90% or more (almost completely withered)) | 5 (Herbicidal rate of 90% or more (almost completely withered)) | K: Italian ryegrass, herbicidal effect rating [21]: 5 (Herbicidal rate of 90% or more (almost completely withered)); F: southern crabgrass, herbicidal effect [22]: 5 (Herbicidal rate of 90% or more (almost completely withered))
3 | Cc1nn(C)c(=O)c(-c2c(-c3ccc(OCc4ccccc4)cc3)sc3ccccc23)c1O [1-133] | 0 (Herbicidal rate of 5% or less (almost no effect)) | 5 (Herbicidal rate of 90% or more (almost completely withered)) | 1 (Herbicidal rate of 5% or more and less than 20%) | 5 (Herbicidal rate of 90% or more (almost completely withered)) | 0 (Herbicidal rate of 5% or less (almost no effect)) | 1 (Herbicidal rate of 5% or more and less than 20%) | 0 (Herbicidal rate of 5% or less (almost no effect)) | 1 (Herbicidal rate of 5% or more and less than 20%) | 5 (Herbicidal rate of 90% or more (almost completely withered)) | 2 (Herbicidal rate of 20% or more and less than 40%) | 3 (Herbicidal rate of 40% or more and less than 70%) | 5 (Herbicidal rate of 90% or more (almost completely withered)) | 0 (Herbicidal rate of 5% or less (almost no effect)) | 3 (Herbicidal rate of 40% or more and less than 70%) | 5 (Herbicidal rate of 90% or more (almost completely withered)) | 1 (Herbicidal rate of 5% or more and less than 20%) | 2 (Herbicidal rate of 20% or more and less than 40%) | 0 (Herbicidal rate of 5% or less (almost no effect)) | 5 (Herbicidal rate of 90% or more (almost completely withered)) | 5 (Herbicidal rate of 90% or more (almost completely withered)) | K: Italian ryegrass, herbicidal effect rating [21]: 0 (Herbicidal rate of 5% or less (almost no effect)); F: southern crabgrass, herbicidal effect [22]: 3 (Herbicidal rate of 40% or more and less than 70%)
